Results on 1 molecule are retold here after patent publication US20100292306A1, “Compositions And Methods For The Treatment Of Muscular Dystrophy” (priority 2005, published 2010).

Format in all cases: in vivo, mdx mice
In one assay the test system is cytosolic IκB-α. The experiment in a line: Western blot of cytosolic IκB-α in mdx diaphragm after a single PDTC dose. How it is done:
Cytosolic levels of IκB-α may be determined using Western blot techniques. Cytosolic and nuclear fractions may be obtained from isolated diaphragm muscles using the techniques described in Kumar and Boriek, 2003. Briefly, the muscles may be weighed after removing tendinous components, and frozen and homogenized by mortar and pestle in lysis buffer on ice (1 mg muscle/18 μl lysis buffer containing 10 mM HEPES, 10 mM KCl, 1.5 mM MgCl2, 0.1 mM EDTA, 0.1 mM EGTA, 1 mM dithiothreitol, 0.5 mM phenylmethylsulfonylfluoride, 2.0 μg/ml leupeptin, 2.0 μg/ml aprotinin, 0.5 mg/ml benzamidine, at pH 7.9). To lyse the cells, the ground tissue may be subjected to two freeze-thaw cycles and subsequently vortexed and centrifuged (13,000 rpm, 10 s). […]
Equal amounts of proteins (based on Lowry Assay) from treated vs. untreated cytosolic fractions may be boiled in SDS-PAGE sample buffer for 5 min, applied to 10% SDS-PAGE gel, and blotted onto PVDF (polyvinyl difluoride) membrane. […] After additional washing steps, the antibody complex may be detected by chemiluminescence using the ECL detection reagent (Amersham) and densitometric measurements may also be obtained. […]
A general note: In western blotting, separated proteins are transferred to a membrane and probed.

Assay [1] has as its system mdx triangularis sterni (TS) muscle. The experiment in a line: Histological cross sections of mdx TS muscle (fiber number, diameter, density, myonuclei, centronucleation). From the text:
To further examine the morphological effects of chronic treatment with inhibitors of the NFκB pathway, the fixed TS preparations used in these investigations on mature mdx mice (Series 2 through 4) were sectioned and stained with hematoxylin and eosin using standard histological procedures (FIG. 7A, 7B, 7C). […] PDTC treatment produced a significant (p<0.001) reduction in diameter in the caudal region and a significant (p<0.001) increase in diameter in the middle region in comparison to corresponding values from the vehicle-injected mdx mice (FIG. 9).
To determine the density of muscle fibers in the mdx TS muscle, individual sections representing all of the fibers within each TS muscle were evaluated by determining the average number of fiber cross sections per unit length of the TS muscle where the length is defined along the axis orthogonal to the principal fiber axis. This procedure was performed for all of the available TS muscles initially used in the Series 2 and 3 PDTC investigations.
Determination of the total number of myonuclei across all regions of the mature nondystrophic, mdx-vehicle, and mdx-PDTC treated TS muscles in conjunction with determination of the total number of fiber cross sections in the same preparations provided an immediate measure of the number of myonuclei per sectioned fiber (FIG. 12).
These morphological results provide direct evidence that inhibitors of the NFκB pathway may have beneficial effects in treating both young and mature dystrophic preparations.

The subject of the next assay is NFκB. Put plainly: Trans AM assays of NFκB in gastrocnemius muscle preparations. The conditions noted are these: chronic PDTC. The text has this: The Trans AM assay and corresponding electrophoretic mobility shift assays (EMSA), along with Western Blot analyses of IκB-α (FIG. 1) and total cellular NFκB, are useful for screening compounds that inhibit the NFκB pathway in dystrophic skeletal muscle and identifying new compounds that have corresponding beneficial effects in treating dystrophic subjects.

[2] abbreviates: Series 2 and 3, vs age-matched vehicle.
The mark [3] stands for this setting: mature mdx, vs vehicle-injected, p<0.001.

Entries after “also recorded” stand apart in the source; their conditions may differ.

As for `S=C(S)N1CCCC1` [PDTC, pyrrolidine dithiocarbamate], the “period of increased cytosolic IκB-α levels” value in the assay on cytosolic IκB-α (single dose 50 mg/kg ip, adult mdx skeletal muscle) is “at least 5 h”. For the same molecule, the “ambient levels of cytosolic IκB-α” value in the assay with cytosolic IκB-α (single ip dose 50 mg/kg, diaphragm 3 and 5 h after injection, vs vehicle littermates, 50 mg/kg) is given as “substantially increased; also recorded: increases”. For the same molecule, in assay [1] (setting [2]), the “fiber number, caudal region” value is given as “substantial increases”; the “fiber number, cephalad region” value is reported as “an increase”; the “fiber number, middle region” value is listed as “no change”. Moreover, the “number of fibers per unit length” value in assay [1] (Series 2 and 3, cephalad and caudal regions, p<0.05) is “increased”. For the same molecule, in assay [1] (Series 2 and 3 mature mdx, vs age matched vehicle, p<0.001), the “number of myonuclei per fiber” value is on record as “increase”. Further, in assay [1] (chronic PDTC, mature mdx), the “fiber number or density, middle region” value is recorded as “without altering”. Moreover, in assay [1] (individual mdx mouse, 50 mg/kg on 238 of 258 days from 5 to 13.5 months, vs 14.6 month vehicle treated, 50 mg/kg), the “density of fibers / loss of muscle fibers” value is listed as “substantial improvements; also recorded: decreases the loss”. Moreover, in assay [1] (mature mdx mice, Series 2 and 3, p<0.001), the “percent centronucleation” value is “reduced; also recorded: significantly decreased”. Further, in assay [1] (setting [3]), the “fiber diameter, caudal region” value is “reduction” and the “fiber diameter, middle region” value is reported as “increase”. Moreover, the “proportion of total cellular NFκB in the cytosolic fraction” value in the assay with NFκB is “increases”. In the assay on NFκB (adult mdx), the “proportion of nuclear NFκB” value is given as “reduces” and the “total cellular NFκB” value is reported as “reduces”.
